Data reported in patent publication US6410537B1, “Compositions having neuroprotective and analgesic activity” (The United States of America as represented by the …, priority 1994, dated 2002).

Key:
neurons = assay: Antagonism of glutamate neurotoxic calcium flux (intracellular calcium response type); format: cell-based
Method: (§1) One particularly valuable enantiomer of the invention is the (+)-8 compound designated SNC80. […] To obtain better understanding of the benefits obtained by use of the compounds of the invention, beneficial effects of the compound were assessed in a model for evaluation of CNS excito-toxicity in an in vitro neuronal culture model. The neurotoxicity/neuroprotection was assessed 18 hours after exposure to the excitotoxin glutamate.

neuronal cell cultures = assay: Neuroprotection against glutamate toxicity in neuronal cell cultures, measured by LDH release; format: cell-based; conditions: for LDH release: mean ± s.e., 18 hours after glutamate exposure
Method: as §1
The neuroprotective effect of the SNC80 against glutamate toxicity in neuronal cell cultures was determined using a standard method of quantifying neuronal damage by measuring LDH release, since LDH is a […] enzyme released from damaged neurons into the culture media when neuronal cells are injured. One way in which neuronal cells may be damaged is by exposure to glutamate, a common agent used to induce neuronal damage. In the instant case, the damaging effect of gluamate on these cultures as shown to be overcome by exposure to an active agent of the invention.

[1] = Convulsive activity after intracerebral ventricular dosing; format: in vivo; conditions: rats; intracerebral ventricular dosages up to 800 μg
[2] = Glutamate (80 μM) + SNC80 20 μM
[3] = Glutamate (80 μM) + SNC80 40 μM

Compound: C=CCN1C[C@H](C)N([C@H](c2ccc(C(=O)N(CC)CC)cc2)c2cccc(OC)c2)C[C@H]1C [SNC80]
- Response Type biphasic (number of neurons) (neurons; Glutamate + 50 μM, 10 neurons): 6
- Response Type sustained (neurotoxic) (number of neurons) (neurons; Glutamate + 50 μM, 10 neurons): 1
- Response Type transient (number of neurons) (neurons; Glutamate + 50 μM, 10 neurons): 3
- Response Type biphasic (number of neurons) (neurons; Glutamate + 100 μM, 21 neurons): 17
- Response Type sustained (neurotoxic) (number of neurons) (neurons; Glutamate + 100 μM, 21 neurons): 1
- Response Type transient (number of neurons) (neurons; Glutamate + 100 μM, 21 neurons): 3
- Intracellular Ca++ concentration as indicator of glutamate-induced neuronal injury (neurons; glutamate-treated neurons): beneficial shift in the intracellular Ca^++ concentration
- Neuroprotection (LDH measurements and morphological evaluation) (neuronal cell cultures; 18 hours after exposure to glutamate, compared to glutamate alone): concentration-dependent neuroprotection
- % neuroprotection (neuronal cell cultures; Glutamate (80 μM) + SNC80 5 μM): 17%
- LDH release (neuronal cell cultures; Glutamate (80 μM) + SNC80 5 μM): 98.6 ± 4.5 Units ML
- % neuroprotection (neuronal cell cultures; [2]): 43%
- LDH release (neuronal cell cultures; [2]): 91.0 ± 2.0 Units ML
- % neuroprotection (neuronal cell cultures; [3]): 63%
- LDH release (neuronal cell cultures; [3]): 84.7 ± 3.4 Units ML
- Convulsive activity [1]: failed to elicit convulsive activity
